Measured values taken from patent publication US20230167118A1, “DEGRADATION OF BRUTON'S TYROSINE KINASE (BTK) BY CONJUGATION OF BTK INIDBITORS WITH E3 LIGASE LIGAND AND METHODS OF USE” (BEIGENE, LTD., priority 2020, published 2023).

Legend:
[1] = system: HEK-293 cells; assay: HEK-293 Cytotoxicity Assay (CellTiter-Glo); type: cell-based; settings: Homo sapiens, HEK293, 72 h incubation, CellTiter-Glo luminescence
Procedure, shortened: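 HEK-293 cells treated 72 h with 8 concentrations (4-fold dilutions, 0.2% DMSO final). Viability read by CellTiter-Glo luminescence; IC50 from four-parameter logistic fit of % inhibition.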

[2] = target: T1, BTK (Homo sapiens, UniProt Q06187); assay: Cell Degradation: BTK degradation in TMD-8 cells, HTRF assay; type: cell-based; settings: 6 h treatment, IC50 (DC50) of BTK degradation
T1 construct: High control=Cell group with added DMSO and without compound, indicating microplate readings without BTK degradation; endogenous in cells; host or cells: TMD-8 cells
Procedure, shortened: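 TMD-8 cells treated 6 h with 8-dose 6-fold dilutions in 0.2% DMSO, then lysed and BTK quantified by HTRF (665/620 nm). Degradation % normalised to high/low controls; DC50 from four-parameter fit, Dmax as maximal degradation.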

T1 sequence (Q06187 whole entry): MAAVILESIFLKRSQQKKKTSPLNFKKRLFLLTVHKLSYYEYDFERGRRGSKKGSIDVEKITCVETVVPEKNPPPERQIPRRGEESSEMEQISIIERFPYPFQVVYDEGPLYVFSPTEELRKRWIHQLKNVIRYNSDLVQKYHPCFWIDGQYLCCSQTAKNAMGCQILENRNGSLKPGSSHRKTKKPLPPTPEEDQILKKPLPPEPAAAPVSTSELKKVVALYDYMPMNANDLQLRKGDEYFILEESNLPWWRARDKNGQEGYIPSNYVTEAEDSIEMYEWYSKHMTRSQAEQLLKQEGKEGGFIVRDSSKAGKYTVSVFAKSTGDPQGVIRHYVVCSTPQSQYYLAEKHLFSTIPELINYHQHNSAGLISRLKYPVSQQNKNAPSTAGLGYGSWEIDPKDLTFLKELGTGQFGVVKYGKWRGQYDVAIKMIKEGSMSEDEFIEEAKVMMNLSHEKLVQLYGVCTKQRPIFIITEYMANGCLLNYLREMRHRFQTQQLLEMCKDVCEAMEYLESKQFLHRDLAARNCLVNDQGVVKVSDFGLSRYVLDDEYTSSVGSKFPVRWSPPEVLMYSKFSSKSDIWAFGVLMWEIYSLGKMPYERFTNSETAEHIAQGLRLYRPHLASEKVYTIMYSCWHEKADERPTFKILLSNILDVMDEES

Row | SMILES | IC50 [1] [nM] | DC50 [2] [nM]
1 | Cc1cc(-c2ncnc3[nH]c(-c4c(C)nn(C5CCN(CC6CCN(c7ccc(N8CCC(=O)NC8=O)cc7)CC6)C5)c4C)cc23)ccc1[C@@H](C)NC(=O)c1nc(C(C)(C)C)no1 (stereo partly drawn) [Example 163, 3-(tert-butyl)-N-((1R)-1-(4-(6-(1-(1-((1-(4-(2,4-dioxotetrahydropyrimidin-1(2H)-yl)phenyl)piperidin-4-yl)methyl)pyrrolidin-3-yl)-3,5-dimethyl-1H-pyrazol-4-yl)-7H-pyrrolo[2,3-d]pyrimidin-4-yl)-2-methylphenyl)ethyl)-1,2,4-oxadiazole-5-carboxamide] | > 10000 | 1.32
2 | Cc1cc(-c2ncnc3[nH]c(-c4ccc(N5CC6(CN(CC7CCN(c8ccc(N9CCC(=O)NC9=O)cc8)CC7)C6)C5)cc4)cc23)ccc1[C@@H](C)NC(=O)c1nc(C(C)(C)C)no1 [Example 164, (R)-3-(tert-butyl)-N-(1-(4-(6-(4-(6-((1-(4-(2,4-dioxotetrahydropyrimidin-1(2H)-yl)phenyl)piperidin-4-yl)methyl)-2,6-diazaspiro[3.3]heptan-2-yl)phenyl)-7H-pyrrolo[2,3-d]pyrimidin-4-yl)-2-methylphenyl)ethyl)-1,2,4-oxadiazole-5-carboxamide] | > 10000 | 1.26
3 | Cc1cc(-c2ncnc3[nH]c(-c4ccc(N5CCN(CC6CCN(c7ccc(N8CCC(=O)NC8=O)cc7)CC6)CC5)cn4)cc23)ccc1[C@@H](C)NC(=O)c1nc(C2(C)CC2)no1 [Example 165, (R)-N-(1-(4-(6-(5-(4-((1-(4-(2,4-dioxotetrahydropyrimidin-1(2H)-yl)phenyl)piperidin-4-yl)methyl)piperazin-1-yl)pyridin-2-yl)-7H-pyrrolo[2,3-d]pyrimidin-4-yl)-2-methylphenyl)ethyl)-3-(1-methylcyclopropyl)-1,2,4-oxadiazole-5-carboxamide] | > 10000 | 0.69
4 | Cc1cc(-c2ncnc3[nH]c(-c4ccc(N5CCN(CC6CCN(c7ccc(N8CCC(=O)NC8=O)cc7)CC6)CC5)nc4)cc23)ccc1[C@@H](C)NC(=O)c1nc(C2(C)CC2)no1 [Example 166, (R)-N-(1-(4-(6-(6-(4-((1-(4-(2,4-dioxotetrahydropyrimidin-1(2H)-yl)phenyl)piperidin-4-yl)methyl)piperazin-1-yl)pyridin-3-yl)-7H-pyrrolo[2,3-d]pyrimidin-4-yl)-2-methylphenyl)ethyl)-3-(1-methylcyclopropyl)-1,2,4-oxadiazole-5-carboxamide] | > 10000 | 1.61
5 | Cc1cc(-c2ncnc3[nH]c(-c4ccc(N5CCCN(CC6CCN(c7ccc(N8CCC(=O)NC8=O)cc7)CC6)CC5)cc4)cc23)ccc1[C@@H](C)NC(=O)c1nc(C(C)(C)C)no1 [Example 167, (R)-3-(tert-butyl)-N-(1-(4-(6-(4-(4-((1-(4-(2,4-dioxotetrahydropyrimidin-1(2H)-yl)phenyl)piperidin-4-yl)methyl)-1,4-diazepan-1-yl)phenyl)-7H-pyrrolo[2,3-d]pyrimidin-4-yl)-2-methylphenyl)ethyl)-1,2,4-oxadiazole-5-carboxamide] | > 10000 | 2.61
6 | Cc1cc(-c2ncnc3[nH]c(-c4cnc(N5CCN(CC6CCN(c7ccc(N8CCC(=O)NC8=O)cc7)CC6)CC5)s4)cc23)ccc1[C@@H](C)NC(=O)c1nc(C(C)(C)C)no1 [Example 168, (R)-3-(tert-butyl)-N-(1-(4-(6-(2-(4-((1-(4-(2,4-dioxotetrahydropyrimidin-1(2H)-yl)phenyl)piperidin-4-yl)methyl)piperazin-1-yl)thiazol-5-yl)-7H-pyrrolo[2,3-d]pyrimidin-4-yl)-2-methylphenyl)ethyl)-1,2,4-oxadiazole-5-carboxamide] | > 10000 | 0.75
7 | Cc1cc(-c2ncnc3[nH]c(-c4c(C)nn(C5CN(CC6CCN(c7ccc(N8CCC(=O)NC8=O)cc7)CC6)C5)c4C)cc23)ccc1[C@@H](C)NC(=O)c1nc(C(C)(C)C)no1 [Example 169, (R)-3-(tert-butyl)-N-(1-(4-(6-(1-(1-((1-(4-(2,4-dioxotetrahydropyrimidin-1(2H)-yl)phenyl)piperidin-4-yl)methyl)azetidin-3-yl)-3,5-dimethyl-1H-pyrazol-4-yl)-7H-pyrrolo[2,3-d]pyrimidin-4-yl)-2-methylphenyl)ethyl)-1,2,4-oxadiazole-5-carboxamide] | > 10000 | 0.52
8 | C[C@@H](NC(=O)c1nc(C(C)(C)C)no1)c1ccc(-c2ncnc3[nH]c(-c4ccc(N5CCN(CC6CCN(c7ccc(N8CCC(=O)NC8=O)cc7)CC6)CC5)cn4)cc23)cc1CO [Example 170, (R)-3-(tert-butyl)-N-(1-(4-(6-(5-(4-((1-(4-(2,4-dioxotetrahydropyrimidin-1(2H)-yl)phenyl)piperidin-4-yl)methyl)piperazin-1-yl)pyridin-2-yl)-7H-pyrrolo[2,3-d]pyrimidin-4-yl)-2-(hydroxymethyl)phenyl)ethyl)-1,2,4-oxadiazole-5-carboxamide] | > 10000 | 0.17
9 | C[C@@H](NC(=O)c1noc(C(C)(C)C)n1)c1cc(F)c(-c2ncnc3[nH]c(-c4ccc(N5CCN(CC6CCN(c7ccc(N8CCC(=O)NC8=O)cc7)CC6)CC5)cn4)cc23)cc1CO [Example 171, (R)-5-(tert-butyl)-N-(1-(4-(6-(5-(4-((1-(4-(2,4-dioxotetrahydropyrimidin-1(2H)-yl)phenyl)piperidin-4-yl)methyl)piperazin-1-yl)pyridin-2-yl)-7H-pyrrolo[2,3-d]pyrimidin-4-yl)-5-fluoro-2-(hydroxymethyl)phenyl)ethyl)-1,2,4-oxadiazole-3-carboxamide] | > 10000 | 0.25
10 | Cc1cc(-c2ncnc3[nH]c(-c4ccc(C5(O)CN(CC6CCN(c7ccc(N8CCC(=O)NC8=O)cc7)CC6)C5)cn4)cc23)ccc1[C@@H](C)NC(=O)c1nc(C(C)(C)C)no1 [Example 172, (R)-3-(tert-butyl)-N-(1-(4-(6-(5-(1-((1-(4-(2,4-dioxotetrahydropyrimidin-1(2H)-yl)phenyl)piperidin-4-yl)methyl)-3-hydroxyazetidin-3-yl)pyridin-2-yl)-7H-pyrrolo[2,3-d]pyrimidin-4-yl)-2-methylphenyl)ethyl)-1,2,4-oxadiazole-5-carboxamide] | > 10000 | 0.24
11 | Cc1cc(-c2ncnc3[nH]c(-c4ccc(C5(F)CN(CC6CCN(c7ccc(N8CCC(=O)NC8=O)cc7)CC6)C5)cn4)cc23)ccc1[C@@H](C)NC(=O)c1nc(C(C)(C)C)no1 [Example 173, (R)-3-(tert-butyl)-N-(1-(4-(6-(5-(1-((1-(4-(2,4-dioxotetrahydropyrimidin-1(2H)-yl)phenyl)piperidin-4-yl)methyl)-3-fluoroazetidin-3-yl)pyridin-2-yl)-7H-pyrrolo[2,3-d]pyrimidin-4-yl)-2-methylphenyl)ethyl)-1,2,4-oxadiazole-5-carboxamide] | > 10000 | 0.98
12 | Cc1cc(-c2ncnc3[nH]c(-c4nn(C)c(C5=CCN(CC6CCN(c7ccc(N8CCC(=O)NC8=O)cc7)CC6)CC5)c4C)cc23)ccc1[C@@H](C)NC(=O)c1nc(C(C)(C)C)no1 [Example 174, (R)-3-(tert-butyl)-N-(1-(4-(6-(5-(1-((1-(4-(2,4-dioxotetrahydropyrimidin-1(2H)-yl)phenyl)piperidin-4-yl)methyl)-1,2,3,6-tetrahydropyridin-4-yl)-1,4-dimethyl-1H-pyrazol-3-yl)-7H-pyrrolo[2,3-d]pyrimidin-4-yl)-2-methylphenyl)ethyl)-1,2,4-oxadiazole-5-carboxamide] | > 10000 | 1.51
13 | Cc1cc(-c2ncnc3[nH]c(-c4c(C)nn(C5CCN(CCNCC6CCN(c7ccc(N8CCC(=O)NC8=O)cc7)CC6)CC5)c4C)cc23)ccc1[C@@H](C)NC(=O)c1nc(C(C)(C)C)no1 [Example 175, (R)-3-(tert-butyl)-N-(1-(4-(6-(1-(1-(2-(((1-(4-(2,4-dioxotetrahydropyrimidin-1(2H)-yl)phenyl)piperidin-4-yl)methyl)amino)ethyl)piperidin-4-yl)-3,5-dimethyl-1H-pyrazol-4-yl)-7H-pyrrolo[2,3-d]pyrimidin-4-yl)-2-methylphenyl)ethyl)-1,2,4-oxadiazole-5-carboxamide] | 7360 | 1.97
14 | Cc1cc(-c2ncnc3[nH]c(-c4ccc(C5CCN(CC6CCN(c7ccc(N8CCC(=O)NC8=O)cc7)CC6)C5)cn4)cc23)ccc1[C@@H](C)NC(=O)c1nc(C(C)(C)C)no1 (stereo partly drawn) [Example 176, 3-(tert-butyl)-N-((1R)-1-(4-(6-(5-(1-((1-(4-(2,4-dioxotetrahydropyrimidin-1(2H)-yl)phenyl)piperidin-4-yl)methyl)pyrrolidin-3-yl)pyridin-2-yl)-7H-pyrrolo[2,3-d]pyrimidin-4-yl)-2-methylphenyl)ethyl)-1,2,4-oxadiazole-5-carboxamide] | > 10000 | 1.1
15 | Cc1cc(-c2ncnc3[nH]c(-c4ccc(C5(F)CCN(CC6CCN(c7ccc(N8CCC(=O)NC8=O)cc7)CC6)C5)cn4)cc23)ccc1[C@@H](C)NC(=O)c1nc(C(C)(C)C)no1 (stereo partly drawn) [Example 177, 3-(tert-butyl)-N-((1R)-1-(4-(6-(5-(1-((1-(4-(2,4-dioxotetrahydropyrimidin-1(2H)-yl)phenyl)piperidin-4-yl)methyl)-3-fluoropyrrolidin-3-yl)pyridin-2-yl)-7H-pyrrolo[2,3-d]pyrimidin-4-yl)-2-methylphenyl)ethyl)-1,2,4-oxadiazole-5-carboxamide] | > 10000 | 0.99
